From paper PMC8012336, “An automated and high-throughput-screening compatible pluripotent stem cell-based test platform for developmental and reproductive toxicity assessment of small molecule compounds” (Cell Biology and Toxicology, 2020)
Values after ≈ are worked out from the molar mass of the structure shown. Like-named read-outs stand apart in the source and are kept apart here.

Assays:
[1] = tested on: mESC-D3 and NIH/3T3 cells; conditions: for Compound classification (Seiler and Spielmann [2011]): automated mouse EST assay; for Compound classification: manual murine EST assay, prediction model of Seiler and Spielmann 2011
[2] = tested on: NIH/3T3; parameters: method as in Scholz et al. [1999]; conditions: ZEBET value, 7 d result; ref Scholz et al. [1999]; cited from earlier work
[3] = tested on: mESC-D3; parameters: method as in Scholz et al. [1999]; conditions: ZEBET value printed beside hanging drop differentiation result; ref Scholz et al. [1999]; cited from earlier work
[4] = tested on: mESC-D3; assay: Automated mESC-D3 differentiation assay in 96-well round-bottom ultra-low attachment plates (cardiomyocyte contraction, day 10); format: cell-based, mouse; conditions: beating cardiomyocytes at day 10, in brackets the two independent runs
Experimental: The mESC-D3 differentiation assay was automated in 96-well round-bottom ultra-low attachment plates (Costar, Cat. No. 7007) on the lab automation platform Fluent (Tecan). The method was set up for testing up to three different compounds in an automated procedure, resulting in maximal 9 plates that were being processed. A 7-point dilution series of test compounds and control solutions were prepared in PBS or DMSO under the laminar flow, transferred to a 96-well 0.5 ml Masterblock plate, and placed on the Fluent worktable. There the compounds were further diluted in growth media in a 96-well 2 ml Masterblock plate using the FCA. Of the compound solution, 10 μl/well were dispensed into a 96-well round well ultra-low attachment plate. In the meantime, a suspension of mESC-D3 (3.75 × 10^4 cells/ ml) was prepared in growth media and was placed in a trough on the worktable. The cell suspension was transferred into the 96-well round-bottom ultra-low attachment plate (40 μl/well) using the FCA. After 2 days of incubation at 37 °C, 5% CO2, and 95% humidity fresh compound and control solutions were prepared and added to the 96-well U-bottom plate (200 μl/well). On day five of the assay freshly prepared compound and control solutions were dispensed into a 96-well imaging plate (200 μl/well, Greiner bio-one, Cat. No. 655866). Using the MCA, the supernatant was aspirated from the 96-well round-bottom ultra-low attachment plate, the EB at the bottom of the well was aspirated and transferred into the prefilled imaging plate. On day 7, the cell supernatant was partially replaced with a fresh compound solution. Therefore, the media was aspirated using the MCA and the fresh compound solution was dispensed with the FCA. After further 3 days of incubation (= day 10 of the assay) cardiomyocyte contraction was determined in each well under the light microscope. Afterward, cells were stained and analyzed using the Opera High Content Screening System (PerkinElmer).
Toxicity data from the MTT and CellTiter-Glo Assay was normalized against the vehicle control (100% viability) and plotted against the logarithmic compound concentration.

[5] = tested on: mESC-D3; format: cell-based, mouse; conditions: for ID50 FACS (MHC-positive cells): flow cytometry, day 7
Experimental: As an alternative to the morphological analysis at day 10, differentiation can be analyzed at day 7 of the assay by flow cytometry using the molecular flow EST (Buesen et al. [2009]). Previously, staining of cardiomyocytes was performed using an unconjugated primary monoclonal antibody directed against the sarcomeric MHC (clone MF20), followed by binding of a secondary biotin-conjugated goat anti-mouse IgG antibody which is then detected with the fluorochrome PE-SA (phycoerythrin-conjugated streptavidin) (Seiler and Spielmann [2011]). […] Of note, these experiments were performed in parallel with the same batch of spontaneously differentiated mESCs.
Embryoid bodies were formed in hanging drops (Petri dish) as already described. On day 5 of the assay, the EBs were transferred into a larger Petri dish and incubated for two more days at 37 °C, 5% CO2, and 95% humidity. Afterward, the EBs were dissociated using the Embryoid Body Dissociation Kit (Miltenyi Biotec, Cat. No. 130-096-348). EBs from two Petri dishes were harvested in one 15 ml tube and washed once with 10 ml PBS. The supernatant was discarded after centrifugation and a pre-warmed enzyme mix was added. The EB/enzyme mix was incubated for 10 min at 37 °C, dissociated for 1 min with a 1000 μl pipette, incubated for 5 min and mechanically dissociated again for 1 min. After the addition of 3 ml PBS, the cell suspension was passed through a 70-μm filter into a new 15-ml tube. The filter was then washed with 3 ml PBS and discarded afterward. The cell suspension was centrifuged for 5 min at 300 rpm. The supernatant was discarded afterward, cells were suspended in PBS and counted. For viability staining, 10^6 cells were suspended in 100 μl staining reagent (LIVE/DEAD™ Fixable Green Dead Stain Kit, Life Technologies, Cat. No. L34969), incubated for 30 min at 4 °C and washed with 1 ml PBS. For fixation, cells were suspended in 100 μl fixation buffer (BioLegend, Cat. No. 420801) and incubated 20 min at room temperature. For the intracellular staining, cells were washed twice with 1 ml permeabilization buffer (BioLegend, Cat. No. 421002) and suspended in 50 μl permeabilization buffer supplemented with 50 μl of pre-diluted (1:5) antibody (mouse IgG2B anti-human Myosin Heavy Chain APC-conjugated, mouse IgG2B APC-conjugated isotype control, R&D Systems, Cat. No. IC4470A). After 1 h incubation at room temperature cells were washed twice with 1 ml permeabilization buffer and suspended in FACS buffer. Within 2–3 h samples were measured on an LSR II flow cytometer (Beckton Dickinson). Data analysis was done using FlowJo software (Version 10.0.8; Tree Star).

[6] = tested on: mESC-D3; assay: Conventional mouse ES-D3 differentiation assay in hanging drop format (petri dish; cardiomyocyte contraction, day 10); format: cell-based; conditions: manual; beating cardiomyocytes at day 10; in brackets the two individual experiments
Experimental: Separate Petri dishes were used for each concentration of test compound, untreated control, and solvent control. […] The EB suspension was incubated for 2 days. On day five of the assay, a fresh compound dilution series was prepared in media and transferred into 24-well cell culture plates (1 ml/well, Greiner bio-one, Cat. No. 662641). A separate 24-well plate was used for each compound concentration, untreated control, and solvent control (24 wells per condition). One EB was transferred from the Petri dish into each well of the 24-well plate. After further 5 days of incubation (= day 10 of the assay), cardiomyocyte contraction was determined in each well under the light microscope.

[7] = tested on: mESC-D3; parameters: method as in Scholz et al. [1999]; conditions: ZEBET value, 7 d result; ref Scholz et al. [1999]; cited from earlier work

| SMILES | Compound classification (Seiler and Spielmann [2011]) [1] | Compound classification [1] | IC50 NIH/3T3 (ZEBET) [2] | ID50 mESC-D3 (ZEBET) [3] | Differentiation assay in round bottom ULA microplate ID50 mESC-D3 [4] | Differentiation assay in round bottom ULA microplate ID50 mESC-D3 ([4]; listed as hydroxyurea) | ID50 FACS (MHC-positive cells) [5] | MHC-positive cells ([5]; treated with 10 μg/ml, untreated 31% (hydroxyurea), 26% (fumonisine B1)) | Differentiation assay in hanging drop (petri dish) ID50 mESC-D3 [6] | IC50 mESC-D3 (ZEBET) [7] | Differentiation assay in round bottom ULA microplate ID50 mESC-D3 ([4]; listed as saccharin) | MHC-positive cells ([5]; treated with 1000 μg/ml, untreated 25%) |
| --- | --- | --- | --- | --- | --- | --- | --- | --- | --- | --- | --- | --- |
| NC(=O)NO [Hydroxyurea, hydroxyurea] | Strong embryotoxicity | strong embryotoxicity | 7.2 µg/mL (≈ 94.7 µM) | 1.7 µg/mL (≈ 22.4 µM) | 2.69 (2.86; 2.52) μg/ml | 2.69 µg/mL | 5.65 µg/mL (≈ 74.3 µM) | 4% | 2.55 (2.56; 2.54) µg/ml | 2.0 µg/mL (≈ 26.3 µM) |  |  |
| O=C1NS(=O)(=O)c2ccccc21 [Saccharin, saccharin] | No embryotoxicity | no embryotoxicity | 3000 µg/mL (≈ 16400 µM) | 2000 µg/mL (≈ 10900 µM) | > 1000 (> 1000; > 1000) μg/ml |  | > 1000 µg/mL |  | 1000 (> 1000; > 1000) µg/ml | 3498 µg/mL (≈ 19100 µM) | > 1000 µg/mL | 19% |
